Test results taken from ChEMBL document CHEMBL1156082, “Novel orally active morpholine N-arylsulfonamides gamma-secretase inhibitors with low CYP 3A4 liability” (Bioorg Med Chem Lett, 2009).
Each block holds one compound with its values, some of them ahead of it.

Assays:
[1] = Inhibition of gamma-secretase assessed as reduction in membrane amyloid beta40 production
[2] = AUC (0 to 6 hrs) in rat blood at 10 mg/kg, po; assay type: ADME, organism-based; design: time < 6 hr, dose 10 mg/kg, route oral
[3] = Inhibition of gamma-secretase assessed as reduction in cell amyloid beta40 production
Mus musculus [4] = assay: Reduction of amyloid beta40 level in TgCRND8 mouse plasma at 30 mg/kg, sc after 3 hrs; assay type: functional; design: scale not given: the % may be the effect or the level left; conditions: route subcutaneous
[5] = Drug level in rat brain at 10 mg/kg, po; assay type: ADME, organism-based; design: dose 10 mg/kg, route oral
[6] = Inhibition of gamma-secretase-mediated notch processing by whole cell assay
Mus musculus [7] = assay: Reduction of amyloid beta40 level in TgCRND8 mouse brain drug dosed po once daily for 5 days; assay type: functional; conditions: 120 h
[8] = Ratio of IC50 for gamma-secretase-mediated notch processing to IC50 for gamma-secretase assessed as reduction in cell amyloid beta40 production
Mus musculus [9] = assay: Reduction of amyloid beta40 level in TgCRND8 mouse plasma drug dosed po once daily for 5 days; assay type: functional; conditions: 120 h

SMILES: CN1CC2CCC(C1)N2C(=O)OC1([C@H]2COC[C@@H](C3CC3)N2S(=O)(=O)c2ccc(Cl)cc2)CC1
IC50 [1]: 2.4 nM | AUC(0-t) at 6 h [2]: 2910 ng·h/mL | IC50 [3]: 17 nM

SMILES: CC(=O)N1C2CCC1CN(C(=O)OC1([C@H]3COC[C@@H](C4CC4)N3S(=O)(=O)c3ccc(Cl)cc3)CC1)C2
IC50 [1]: 15 nM | AUC(0-t) at 6 h [2]: 871 ng·h/mL | IC50 [3]: 25 nM

SMILES: O=C(OC1([C@H]2COC[C@@H](C3CC3)N2S(=O)(=O)c2ccc(Cl)cc2)CC1)N1C2CCC1CN(CCO)C2
IC50 [1]: 15 nM | AUC(0-t) at 6 h [2]: 1280 ng·h/mL | IC50 [3]: 27 nM

SMILES: CC(C)(CO)N1CCN(C(=O)OC2([C@H]3COC[C@@H](C4CC4)N3S(=O)(=O)c3ccc(Cl)cc3)CC2)CC1
IC50 [1]: 9.5 nM | AUC(0-t) at 6 h [2]: 446 ng·h/mL | Activity (Mus musculus [4]): -78% | IC50 [3]: 9 nM

SMILES: C[C@H]1OC[C@H](C2(OC(=O)N3CC4CCC(C3)N4CCO)CC2)N(S(=O)(=O)c2ccc(Cl)cc2)[C@@H]1C1CC1
IC50 [1]: 0.9 nM

SMILES: CS(=O)(=O)N1C2CCC1CN(C(=O)OC1([C@H]3COC[C@@H](C4CC4)N3S(=O)(=O)c3ccc(Cl)cc3)CC1)C2
IC50 [1]: 41 nM

SMILES: CC(=O)N1C2CCC1CN(C(=O)OC1([C@H]3CO[C@@H](C)[C@@H](C4CC4)N3S(=O)(=O)c3ccc(Cl)cc3)CC1)C2
IC50 [1]: 5.4 nM | AUC(0-t) at 6 h [2]: 178 ng·h/mL

SMILES: C[C@@H]1OC[C@H](C2(OC(=O)N3CC4CCC(C3)N4CCO)CC2)N(S(=O)(=O)c2ccc(Cl)cc2)[C@@H]1C1CC1
IC50 [1]: 1.5 nM

SMILES: CN1C2CCC1CN(C(=O)OC1([C@H]3COC[C@@H](C4CC4)N3S(=O)(=O)c3ccc(Cl)cc3)CC1)C2
IC50 [1]: 4.6 nM | AUC(0-t) at 6 h [2]: 939 ng·h/mL | Activity (Mus musculus [4]): -88% | IC50 [3]: 20 nM

SMILES: O=C(OC1([C@H]2COC[C@@H](C3CC3)N2S(=O)(=O)c2ccc(Cl)cc2)CC1)N1C2CCC1CNC2
IC50 [1]: 17 nM | AUC(0-t) at 6 h [2]: 4660 ng·h/mL | IC50 [3]: 72 nM

SMILES: CC(=O)N1C2CCC1CN(C(=O)OC1([C@H]3CO[C@H](C)[C@@H](C4CC4)N3S(=O)(=O)c3ccc(Cl)cc3)CC1)C2
IC50 [1]: 4 nM | AUC(0-t) at 6 h [2]: 23 ng·h/mL

SMILES: O=C(OC1([C@H]2COC[C@@H](C3CC3)N2S(=O)(=O)c2ccc(Cl)cc2)CC1)N1CC[C@H](NS(=O)(=O)C(F)(F)F)C1
IC50 [1]: 49 nM | AUC(0-t) at 6 h [2]: 870 ng·h/mL

SMILES: O=C(OC[C@H]1CCC[C@@H](c2cc(F)cc(F)c2)N1S(=O)(=O)c1ccc(Cl)cc1)N1CCN(CCO)CC1
IC50 [1]: 41 nM | IC50 [3]: 167 nM

SMILES: C[C@@H]1CN(C(=O)OC2([C@H]3COC[C@@H](c4cc(F)cc(F)c4)N3S(=O)(=O)c3ccc(Cl)cc3)CC2)CCN1CCO
IC50 [1]: 5.5 nM | Activity (Mus musculus [4]): -87%

SMILES: O=C(OC1([C@H]2COC[C@@H](C3CC3)N2S(=O)(=O)c2ccc(Cl)cc2)CC1)N1CC2CCC(C1)N2
IC50 [1]: 7.1 nM | AUC(0-t) at 6 h [2]: 4360 ng·h/mL | Activity (Mus musculus [4]): -90% | IC50 [3]: 25 nM

Second part, led by results:

IC50 [1]: 27 nM
SMILES: O=C(OC1([C@H]2COC[C@@H](C3CC3)N2S(=O)(=O)c2ccc(Cl)cc2)CC1)N1CC[C@H](O)C1

IC50 [1]: 30 nM | AUC [5]: 703 ng·h/mL
SMILES: CC(C)(C(=O)O)C1CCN(C(=O)OC2([C@H]3COC[C@@H](C4CC4)N3S(=O)(=O)c3ccc(Cl)cc3)CC2)CC1

IC50 [1]: 10 nM | AUC(0-t) at 6 h [2]: 1100 ng·h/mL | IC50 [3]: 25 nM
SMILES: CCN1C2CCC1CN(C(=O)OC1([C@H]3COC[C@@H](C4CC4)N3S(=O)(=O)c3ccc(Cl)cc3)CC1)C2

IC50 [1]: 24 nM | AUC [5]: 2460 ng·h/mL
SMILES: O=C(O)CC1CCN(C(=O)OC2([C@H]3COC[C@@H](C4CC4)N3S(=O)(=O)c3ccc(Cl)cc3)CC2)CC1

IC50 [1]: 76 nM | IC50 [3]: 95 nM
SMILES: O=C(OC[C@H]1COC[C@@H](c2cc(F)cc(F)c2)N1S(=O)(=O)c1ccc(Cl)cc1)N1CCN(CCO)CC1

IC50 [1]: 1.1 nM | AUC(0-t) at 6 h [2]: 1370 ng·h/mL
SMILES: CC1(C)OC[C@H](C2(OC(=O)N3CC4CCC(C3)N4CCO)CC2)N(S(=O)(=O)c2ccc(Cl)cc2)[C@@H]1C1CC1

IC50 [1]: 37 nM
SMILES: C[C@@H]1CN(C(=O)OC2([C@H]3COC[C@@H](C4CC4)N3S(=O)(=O)c3ccc(Cl)cc3)CC2)CCN1CCO

IC50 [1]: 12 nM
SMILES: O=C(OC1([C@H]2COC[C@@H](c3cc(F)cc(F)c3)N2S(=O)(=O)c2ccc(Cl)cc2)CC1)N1CC[C@H](O)C1
Activity (Mus musculus [4]): 21%

IC50 [1]: 8.9 nM | AUC(0-t) at 6 h [2]: 567 ng·h/mL | IC50 [3]: 31 nM
SMILES: CN(C)CC(=O)N1C2CCC1CN(C(=O)OC1([C@H]3COC[C@@H](C4CC4)N3S(=O)(=O)c3ccc(Cl)cc3)CC1)C2

IC50 [3]: 5 nM
SMILES: O=C(OC1([C@H]2CCC[C@@H](c3cc(F)cc(F)c3)N2S(=O)(=O)c2ccc(Cl)cc2)CC1)N1CCN(CCO)CC1

IC50 [1]: 4.6 nM | AUC(0-t) at 6 h [2]: 6 ng·h/mL
SMILES: CC(=O)N1C2CCC1CN(C(=O)OC1([C@H]3COC(C)(C)[C@@H](C4CC4)N3S(=O)(=O)c3ccc(Cl)cc3)CC1)C2

IC50 [1]: 20 nM | AUC(0-t) at 6 h [2]: 11 ng·h/mL | IC50 [3]: 31 nM
SMILES: O=C(OC1([C@H]2COC[C@@H](C3CC3)N2S(=O)(=O)c2ccc(Cl)cc2)CC1)N1CC[C@H](OCCO)C1

IC50 [1]: 14 nM | AUC(0-t) at 6 h [2]: 35 ng·h/mL | IC50 [3]: 41 nM
SMILES: NC(=O)CC1CCN(C(=O)OC2([C@H]3COC[C@@H](C4CC4)N3S(=O)(=O)c3ccc(Cl)cc3)CC2)CC1

IC50 [1]: 1.4 nM
SMILES: CC(C)(CO)N1CCN(C(=O)OC2([C@H]3COC[C@@H](c4cc(F)cc(F)c4)N3S(=O)(=O)c3ccc(Cl)cc3)CC2)CC1
Activity (Mus musculus [4]): -68%

IC50 [6]: 194 nM | IC50 [1]: 7.9 nM | AUC(0-t) at 6 h [2]: 1920 ng·h/mL | Ratio IC50 [8]: 13 | IC50 [3]: 15 nM
SMILES: O=C(OC1([C@H]2COC[C@@H](C3CC3)N2S(=O)(=O)c2ccc(Cl)cc2)CC1)N1CC2CCC(C1)N2CCO
ED50 (Mus musculus [7]): 100 mg/kg | Activity (Mus musculus [4]): -93% | ED50 (Mus musculus [9]): 10 mg/kg
